Like-named read-outs stand apart in the source and are kept apart here.
Columns and labels:
[1] = tested on: TGF-β; assay: TGF-β levels in culture medium of human conjunctival cells (ELISA); type: cell-based
Description: FIGS. 7A and 7B illustrate that PS suppresses cytokine levels in cultured conjunctival cells and the ILG of rabbits with DED. […] Cytokine levels were determined by ELISA and represent the average of a three samples. In FIG. 7B, IL-1β and IL-8 levels were determined by ELISA in the lacrimal glands of rabbits with Con A-induced DED that were treated with vehicle or PS for one week as previously. Gland tissue was homogenized and ELISA was performed on whole-tissue lysates. n=8 glands/group. Values=mean±SEM.
Cells were treated with PS 1×IC50 and 2 h later TNF-α was added to the medium to a final concentration of 10 ng/ml. Culture media were harvested 24 h later and the levels of TGF-β, IL-6 and IL-8 were determined by ELISA. Of note, the levels of IL-1 were below the limit of detection.

[2] = tested on: corneal sensitivity; assay: Corneal touch threshold (CTT) assay, Cochet-Bonnet aesthesiometer; type: in vivo, rabbits
Description: FIGS. 10A and 10B illustrate the ocular analgesic effect of PS. FIG. 10A: One drop of PS 0.5%, vehicle, or lidocaine was applied to one eye of rabbits (n=4/group) and the corneal touch threshold (CTT) was determined using an Eshesiometer. Vehicle had no effect on CTT (not shown; overlaps with the 0 value horizontal line). Values=mean±SEM. FIG. 10B: PS 0.5% in formulations differing in pH as indicated produced different analgesic responses in rabbits. The areas under each curve (AUC), indicted in the figure, that quantify these responses vary by as much as >5 fold. Values are the average of 2; all were within 11% of each other.
FIGS. 11A and 11B illustrates the effect of various concentrations of PS on corneal sensitivity determined by the corneal touch threshold (CTT) assay. The CTT score is expressed as length of filament. Measurements were performed at the indicated time points after a single application of PS as an eye drop. Rabbits with normal or dry eyes were studied (n=6 eyes per group). Dry eyes were induced by Concanavalin A injection as described in the text. The % PS content in each study is shown. The numbers in parentheses indicate the corresponding value of the area under the curve. Values=mean±SEM.
FIGS. 12A and 12B illustrate the effect of various drugs on corneal sensitivity determined by the corneal touch threshold (CTT) assay described herein. Each drug was used in its commercially available form; one eye drop of each was applied. The numbers in parentheses indicate the corresponding value of the area under the curve. Values=mean±SEM.
The analgesic effect of PS was examined on the surface of the eye by determining the corneal touch threshold (CTT) using the Luneau Cochet-Bonnet Aesthesiometer (Western Ophthalmics, Lynwood, Wash.) an adjustable nylon monofilament with a defined diameter, which is applied in different lengths to the center of the cornea.
In this embodiment, the composition of the PS preparation was: 0.5% PS, 18% (2-hydroxypropyl)-β-cyclodextrin (HP-β-CD), 1-4% Tween 80. Preparation Method: HP-β-CD was dissolved in purified water maintained in a 50° C. water bath. PS was added into this solution and kept at 50° C. overnight with stirring at 500 rpm until PS was fully dissolved. Tween 80 was added into the PS HP-β-CD solution, which was then centrifuged at 3000 rpm for 10 min to remove undissolved particles. The supernatant was collected and pH was adjusted to the desired value using a NaOH solution. The analgesic effect of PS was examined as above.
The effect of PS and other compounds on corneal sensitivity was determined in rabbits with normal or dry eyes using the CTT assay as above; DED was induced by Concanavalin A as previously described. The CTT score, expressed as filament length in mm, of normal eyes was 5.56±0.11 mm (mean±SEM for this and subsequent values) and in dry eyes 4.17±0.12 mm; the difference between the two is statistically significant (p<0.0001).

[3] = tested on: Staphylococcus aureus; assay: Disk diffusion method, antibiotic disks impregnated with PS; type: cell-based; details: PS 1-9% vs 0% PS
Description: It was assessed whether the combination of PS with antibiotics for their topical application to the eye affects the antimicrobial activity of the antibiotics. To this end, the disk diffusion method was used.
Briefly, Staphylococcus aureus grown in culture was seeded evenly on Muller-Hinton II Agar plates (BD Diagnostic Systems) at the standard concentration of 2×10^8 colony-forming units per mL. Antibiotic antimicrobial susceptibility disks (Thermo Scientific Oxoid™) were impregnated with one of six concentrations of PS (0%, 1%, 2%, 3%, 6%, 9%); 10 μL of each was evenly dispensed on each disk. An additional control was disks with no PS and no vehicle. The growth of bacteria around each disk was monitored and the area of “no growth” around each disk was measured 24 h later.

[4] = Ocular PK study of PS nanoparticles (mPEG-PLA), topical eye drops; type: in vivo, New Zealand white rabbits; set-up: AUC(0-t) / AUC0-16h, cornea / AUC0-16h, conjunctiva: concentration or dose not given beside the values; details: for AUC(0-t) / Cmax: New Zealand white, rabbit, topical or ocular
Description: Composition: ˜3.0-3.5% PS, 96.5˜97% methoxy poly(ethylene glycol)-poly(lactide) (mPEG-PLA).
Preparation Method: Oil phase: 150 mg of PS and 1 g of PEG-PLA (Akina, Inc) were dissolved in 20 mL dichloromethane (DCM). Water phase: 365 mg of sodium cholate were dissolved in 60 ml of purified water. 5 mL of the oil phase was gently added into 15 mL of the water phase in a 50 mL Eppendorf conical tube. To create an emulsion, we used robe sonication for 2 min at 75% output (Branson 150, Fisher Scientific™, USA); the watt output was 12-13. The emulsion was transferred into a 100 mL beaker and stirred overnight at 600 rpm in a chemical hood until the DCM was fully evaporated. This was followed by centrifugation at 14,000 rpm for 1 h (Dupont, RC-5C). Then, the supernatant was transferred to another tube into which 3 mL of PBS were added to resuspend the nanoparticles. The nanoparticle solution was centrifuged for 6-7 seconds to remove aggregates. This supernatant was the final preparation.
Ocular PK study: PS formulated in nanoparticles as above was administered topically as eye drops to New Zealand white rabbits. The biodistribution of PS in ocular tissues at the indicated time points post administration was determined by HPLC.

## CCOP(=O)(OCC)OCCCCOC(=O)CC1=C(C)/C(=C/c2ccc([S+](C)[O-])cc2)c2ccc(F)cc21 (centres unmarked) [PS, phosphosulindac]
[1]; PS 1×IC50, TNF-α 10 ng/ml, 24 h
  reduction of TNF-α-stimulated TGF-β levels: 19%
[1]; PS 1×IC50, not statistically significant
  reduction of unstimulated TGF-β levels: 4.7%
[2]; 0.05% PS
  effect on corneal sensitivity (CTT), dry eyes: ineffective
[2]; 0.2% and 1.6% PS
  effect on corneal sensitivity (CTT), dry eyes: essentially equipotent
[2]; Con A-induced dry eyes, single eye drop
  effect on corneal sensitivity (CTT), dry eyes: restored the already suppressed ocular sensitivity
[2]; PS 0.5%, HP-β-CD formulation
  variation of AUC of analgesic response between formulations differing in pH: > 5 fold
[2]; dry eye
  duration of response of corneal sensation: less than 100 min
  onset of response of corneal sensation: ≤ 5 min
[2]; dry eyes
  time at which values returned to baseline: 100 min
[2]; naïve rabbits, single eye drop, PS 0.5%
  analgesic effect (CTT): essentially instantaneous and significant analgesia
[2]; single eye drop, various PS concentrations
  effect on corneal sensitivity (CTT), normal eyes: dose-dependent analgesic effect
[3]
  effect of PS on the inhibition zone of each antibiotic: did not appreciably change
[4]; aqueous humor, read-out: AUC0-16 h, Aqueous humor
  AUC(0-t): 3.4 µM·h
[4]; aqueous humor, read-out: Cmax, Aqueous humor
  Cmax: 2.6 µM
[4]; ciliary body, read-out: AUC0-16 h, Ciliary body
  AUC(0-t): 3.6 µM·h
[4]; ciliary body, read-out: Cmax, Ciliary body
  Cmax: 2.6 µM
[4]; conjunctiva, read-out: AUC0-16 h, Conjunctiva
  AUC(0-t): 61.7 µM·h
[4]; conjunctiva, read-out: Cmax, Conjunctiva
  Cmax: 26.7 µM
[4]; cornea, read-out: AUC0-16 h, Cornea
  AUC(0-t): 156 µM·h
[4]; cornea, read-out: Cmax, Cornea
  Cmax: 101 µM
[4]; iris, read-out: AUC0-16 h, Iris
  AUC(0-t): 13.6 µM·h
[4]; iris, read-out: Cmax, Iris
  Cmax: 5.2 µM
[4]; sclera, read-out: AUC0-16 h, Sclera
  AUC(0-t): 3.3 µM·h
[4]; sclera, read-out: Cmax, Sclera
  Cmax: 2.1 µM
[4]; PS and its metabolites
  Cmax, conjunctiva: 26.7 µM
  Cmax, cornea: 101.3 μm

— US20220233556A1, “COMPOSITIONS AND METHODS FOR TREATING OPHTHALMIC CONDITIONS” (Medicon Pharmaceuticals, Inc., priority 2017, published 2022)
